Measured values from PubChem BioAssay (NCI).
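These data come from cells grown in 96-well plates and exposed to compound for 48 hours at five concentrations. GI50: concentration for 50% inhibition of growth. Definition used: TGI = concentration required for complete inhibition of growth.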

Assays:
Test in all cases: NCI anticancer screen, dose series, 48 h
[1] = test system: NCI-H226 lung
[2] = test system: SN12C renal
[3] = test system: HOP-92 NSCLC
[4] = test system: K-562 leukemia
[5] = test system: SK-MEL-28 melanoma
[6] = test system: NCI/ADR-RES ovarian
[7] = test system: SK-OV-3 ovarian
[8] = test system: SK-MEL-5 melanoma
[9] = test system: SF-295 CNS
[10] = test system: T-47D breast
[11] = test system: SR leukemia
[12] = test system: TK-10 renal
[13] = test system: HL-60(TB) leukemia
[14] = test system: OVCAR-3 ovarian
[15] = test system: RPMI-8226 leukemia
[16] = test system: HT29 colon
[17] = test system: PC-3 prostate
[18] = test system: 786-0 renal
[19] = test system: SF-268 CNS
[20] = test system: COLO 205 colon
[21] = test system: SNB-19 CNS
[22] = test system: LOX IMVI melanoma
[23] = test system: HCT-116 colon
[24] = test system: OVCAR-8 ovarian
[25] = test system: M14 melanoma
[26] = test system: UO-31 renal
[27] = test system: MOLT-4 leukemia
[28] = test system: HS 578T breast
[29] = test system: SW-620 colon
[30] = test system: SNB-75 CNS
[31] = test system: OVCAR-5 ovarian
[32] = test system: BT-549 breast
[33] = test system: DU-145 prostate
[34] = test system: OVCAR-4 ovarian
[35] = test system: A549 NSCLC
[36] = test system: CCRF-CEM leukemia
[37] = test system: SK-MEL-2 melanoma
[38] = test system: IGROV1 ovarian
[39] = test system: HCC-2998 colon
[40] = test system: A498 renal
[41] = test system: MCF7 breast
[42] = test system: NCI-H460 lung
[43] = test system: KM12 colon
[44] = test system: ACHN renal
[45] = test system: NCI-H23 lung
[46] = test system: HCT-15 colon
[47] = test system: MDA-MB-435
[48] = test system: MALME-3M melanoma
[49] = test system: SF-539 CNS
[50] = test system: HOP-62 NSCLC
[51] = test system: RXF 393 renal
[52] = test system: MDA-MB-231 breast
[53] = test system: UACC-257 melanoma
[54] = test system: NCI-H522 lung
[55] = test system: U251 CNS
[56] = test system: UACC-62 melanoma

## COc1ccc(-c2cc(/C=C/C(=O)c3ccc(N)cc3)[nH]n2)cc1OC
[1]
  GI50: 2.32 µM
  TGI: 7.38 µM
[2]
  GI50: 3.53 µM
  TGI: 13.7 µM
[3]
  GI50: 14.9 µM
  TGI: 30.9 µM
[4]
  GI50: 2.03 µM
  TGI: 36.4 µM
[5]
  GI50: 2.14 µM
  TGI: 5.66 µM
[6]
  GI50: 6.21 µM
  TGI: > 100 µM
[7]
  GI50: 4.86 µM
  TGI: 16.8 µM
[8]
  GI50: 3.16 µM
  TGI: 11.5 µM
[9]
  GI50: 3.58 µM
  TGI: 15.2 µM
[10]
  GI50: 4.25 µM
  TGI: 26 µM
[11]
  GI50: 0.587 µM
  TGI: 5.31 µM
[12]
  GI50: 10.9 µM
  TGI: 23 µM
[13]
  GI50: 3.45 µM
  TGI: > 100 µM
[14]
  GI50: 1.92 µM
  TGI: 4.19 µM
[15]
  GI50: 1.28 µM
  TGI: 5.52 µM
[16]
  GI50: 2.6 µM
  TGI: 6.91 µM
[17]
  GI50: 3.71 µM
  TGI: 19.8 µM
[18]
  GI50: 1.88 µM
  TGI: 4.39 µM
[19]
  GI50: 1.89 µM
  TGI: 4.4 µM
[20]
  GI50: 1.88 µM
  TGI: 3.59 µM
[21]
  GI50: 4.36 µM
  TGI: 18 µM
[22]
  GI50: 1.92 µM
  TGI: 3.91 µM
[23]
  GI50: 1.71 µM
  TGI: 3.51 µM
[24]
  GI50: 2.95 µM
  TGI: 10.5 µM
[25]
  GI50: 2.28 µM
  TGI: 5.11 µM
[26]
  GI50: 3.03 µM
  TGI: 13.1 µM
[27]
  GI50: 3.11 µM
  TGI: 16.5 µM
[28]
  GI50: 6.58 µM
  TGI: > 100 µM
[29]
  GI50: 2.5 µM
  TGI: 6.94 µM
[30]
  GI50: 2.74 µM
  TGI: 14.2 µM
[31]
  GI50: 2.62 µM
  TGI: 7.94 µM
[32]
  GI50: 1.5 µM
  TGI: 2.94 µM
[33]
  GI50: 3.74 µM
  TGI: 13.5 µM
[34]
  GI50: 2.68 µM
  TGI: 15.8 µM
[35]
  GI50: 2.75 µM
  TGI: 10.1 µM
[36]
  GI50: 1.74 µM
  TGI: 7.81 µM
[37]
  GI50: 8.44 µM
  TGI: 22.2 µM
[38]
  GI50: 4.56 µM
  TGI: 19 µM
[39]
  GI50: 2.02 µM
  TGI: 3.83 µM
[40]
  GI50: 2.37 µM
  TGI: 7.09 µM
[41]
  GI50: 2.28 µM
  TGI: 8.48 µM
[42]
  GI50: 2.03 µM
  TGI: 4.53 µM
[43]
  GI50: 1.68 µM
  TGI: 3.35 µM
[44]
  GI50: 1.67 µM
  TGI: 3.29 µM
[45]
  GI50: 4.21 µM
  TGI: 19.3 µM
[46]
  GI50: 1.7 µM
  TGI: 5.37 µM
[47]
  GI50: 2.53 µM
  TGI: 7.23 µM
[48]
  GI50: 6.72 µM
  TGI: 21.2 µM
[49]
  GI50: 1.73 µM
  TGI: 3.53 µM
[50]
  GI50: 2.8 µM
  TGI: 9.67 µM
[51]
  GI50: 2.15 µM
  TGI: 5.12 µM
[52]
  GI50: 4.42 µM
  TGI: 17.2 µM
[53]
  GI50: 6.46 µM
  TGI: 19.5 µM
[54]
  GI50: 1.65 µM
  TGI: 3.22 µM
[55]
  GI50: 1.74 µM
  TGI: 3.66 µM
[56]
  GI50: 3.11 µM
  TGI: 10.9 µM
